# Data published in patent publication US11879140B2, “P21 mRNA targeting DNAzymes” (1E Therapeutics Ltd., priority 2020, dated 2024).
# Tested on: human p21 mRNA
# Assay: In vitro cleavage assay of human p21 mRNA
# Format: biochemical
# Settings: in vitro cleavage of p21 mRNA (SEQ ID NO: 1); RNA substrate 500 nM, 37° C. 60 min, agarose gel
# From the text: Total RNA was isolates from senescent IMR-90 cells using Nucleospin® RNA kit (Macherey-Nagel™). cDNA was synthesized with gene-specific reverse primers using M-MLV Reverse Transcriptase (Promega), according to the manufacturer's protocol. To generate template for in vitro transcription (IVT) reaction, the cDNA was PCR amplified using KAPA Taq EXtra HotStart® ReadyMix™ PCR Kit (R&D). PCR product was run on 1.5% agarose TAE gel, the correct band size was cut and DNA was cleaned using Wizard® SV Gel and PCR Clean-Up System kit (Promega). IVT was performed using HiScribe™ T7 High Yield RNA Synthesis Kit (NEB). Samples were then treated with DNase I (New England Biolabs) and incubated for 15 minutes at 37° C. IVT product was run on 1.5% agarose TBE gel, the correct band size was cut and RNA was cleaned using QIAquick® Gel Extraction Kit (Qiagen). See primer sequences in Table 1, below.
# RNA substrate was diluted with Molecular Biology Grade Water (Biological Industries) and used in in vitro cleavage assay. A 20 μl reaction system comprising RNA substrate (final concentration 500 nM), 2 μl 10× reaction buffer (50 mM Tris-HCl pH 7.4, 100 mM NaCl, 10 mM MgCl2) and 1 μl DNAzyme (10 μM) (as depicted in Table 2, below) was mixed. Reactions were incubated at 37° C. for 60 min. 2×RNA L.D. (Thermo Fisher) was added to each sample. Samples were heated at 70° C. for 30 sec, centrifuged and loaded onto 1.5% agarose TBE gels. Quantification was performed using Image Lab software (Bio Rad).
row,Substance,Validated cleavage
1,"DNAzyme 1991: SEQ ID NO: 74: AAAGTGCAAggctagctacaacgaGAACTGGGG (DNA AAAGTGCAAGGCTAGCTACAACGAGAACTGGGG; DNA, backbone and methylation of C not given here)",validated for mediating cleavage of p21 mRNA
2,"DNAzyme 846: SEQ ID NO: 33: GTGGGCGGAggctagctacaacgaTAGGGCTTC (DNA GTGGGCGGAGGCTAGCTACAACGATAGGGCTTC; DNA, backbone and methylation of C not given here)",validated for mediating cleavage of p21 mRNA
3,"DNAzyme 1967: SEQ ID NO: 70: TGGGGTGGAggctagctacaacgaGAGGAAGGT (DNA TGGGGTGGAGGCTAGCTACAACGAGAGGAAGGT; DNA, backbone and methylation of C not given here)",validated for mediating cleavage of p21 mRNA
4,"DNAzyme 1455: SEQ ID NO: 45: AGGGGGGTAggctagctacaacgaCAAGAGCCA (DNA AGGGGGGTAGGCTAGCTACAACGACAAGAGCCA; DNA, backbone and methylation of C not given here)",validated for mediating cleavage of p21 mRNA
5,"DNAzyme 1736: SEQ ID NO: 58: CCATTGAGtccgagccggacgaGGGGGTGGG (DNA CCATTGAGTCCGAGCCGGACGAGGGGGTGGG; DNA, backbone and methylation of C not given here)",validated for mediating cleavage of p21 mRNA
6,"DNAzyme 1003: SEQ ID NO: 37: GCCAGAGGtccgagccggacgaGGGGGGCAG (DNA GCCAGAGGTCCGAGCCGGACGAGGGGGGCAG; DNA, backbone and methylation of C not given here)",validated for mediating cleavage of p21 mRNA
7,"DNAzyme 1504: SEQ ID NO: 47: GGGGTGGTtccgagccggacgaGCTCCAGGA (DNA GGGGTGGTTCCGAGCCGGACGAGCTCCAGGA; DNA, backbone and methylation of C not given here)",validated for mediating cleavage of p21 mRNA
8,"DNAzyme 1641: SEQ ID NO: 53: AGAGGGGAAggctagctacaacgaTGCAGAGCC (DNA AGAGGGGAAGGCTAGCTACAACGATGCAGAGCC; DNA, backbone and methylation of C not given here)",validated for mediating cleavage of p21 mRNA
9,"DNAzyme 1986: SEQ ID NO: 72: GCAATGAAtccgagccggacgaGGGGAGGGA (DNA GCAATGAATCCGAGCCGGACGAGGGGAGGGA; DNA, backbone and methylation of C not given here)",validated for mediating cleavage of p21 mRNA
10,"DNAzyme 1947: SEQ ID NO: 69: GCTGGACGAggctagctacaacgaTTGAGGGGC (DNA GCTGGACGAGGCTAGCTACAACGATTGAGGGGC; DNA, backbone and methylation of C not given here)",validated for mediating cleavage of p21 mRNA
11,"DNAzyme 1719: SEQ ID NO: 57: GGGGTGGGAggctagctacaacgaAGGCACCTC (DNA GGGGTGGGAGGCTAGCTACAACGAAGGCACCTC; DNA, backbone and methylation of C not given here)",validated for mediating cleavage of p21 mRNA
12,"DNAzyme 1786: SEQ ID NO: 60: GAGGTAGAAggctagctacaacgaTAGGGTGCC (DNA GAGGTAGAAGGCTAGCTACAACGATAGGGTGCC; DNA, backbone and methylation of C not given here)",validated for mediating cleavage of p21 mRNA
13,"DNAzyme 1013: SEQ ID NO: 38: TAATTCTAAggctagctacaacgaGCCAGAGGC (DNA TAATTCTAAGGCTAGCTACAACGAGCCAGAGGC; DNA, backbone and methylation of C not given here)",validated for mediating cleavage of p21 mRNA
